{"source": "patent US20230141863A1", "about": "“Small Molecule Inhibitors Targeting the Sodium Channel Tamoxifen Receptor and Uses Thereof” (Northwestern University, priority 2021, published 2023)", "key": {"[1]": {"target": "T1, estrogen receptor (ER) (Homo sapiens, UniProt P03372)", "T1 sequence (P03372 1-595)": "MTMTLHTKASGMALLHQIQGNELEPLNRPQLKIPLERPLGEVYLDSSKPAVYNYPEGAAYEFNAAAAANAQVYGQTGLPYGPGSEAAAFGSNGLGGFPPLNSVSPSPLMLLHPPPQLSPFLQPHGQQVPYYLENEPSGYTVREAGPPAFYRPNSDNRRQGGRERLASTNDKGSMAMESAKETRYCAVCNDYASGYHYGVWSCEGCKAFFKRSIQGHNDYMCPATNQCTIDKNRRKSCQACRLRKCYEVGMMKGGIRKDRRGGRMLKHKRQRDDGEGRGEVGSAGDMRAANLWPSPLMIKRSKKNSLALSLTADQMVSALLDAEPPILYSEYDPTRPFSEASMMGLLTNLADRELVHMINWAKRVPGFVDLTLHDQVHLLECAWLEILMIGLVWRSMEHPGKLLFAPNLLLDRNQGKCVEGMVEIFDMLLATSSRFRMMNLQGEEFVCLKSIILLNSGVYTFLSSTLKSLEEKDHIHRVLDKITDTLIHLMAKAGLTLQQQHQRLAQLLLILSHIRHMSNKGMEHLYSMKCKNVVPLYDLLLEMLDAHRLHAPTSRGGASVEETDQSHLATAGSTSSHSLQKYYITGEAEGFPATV", "conditions": "reference 35; cited from earlier work"}, "[2]": {"test_system": "T2, endogenous voltage-gated sodium channels expressed in murine DRG neurons", "T2 construct": "other: waiting for 5 minutes after removal; ND-Tam potency against DRG INa (IC50); other: DRG neurons, −60 mV holding potential; other: 3 μM ND-Tam treatment; other: DR", "experiment": "Whole cell voltage clamp of endogenous sodium currents (INa) in cultured DRG sensory neurons", "assay_type": "cell-based, mouse", "method": "FIG. 1. Tamoxifen metabolites inhibit endogenous voltage-gated sodium channels expressed in murine DRG neurons. A) DIC and fluorescence images of voltage clamped DRG neuron isolated and cultured from an Nav1.8-tomato mouse. Continuity with the patched neuron is indicted by the GFP (Alexa Fluor 488 dye 1 nM) loaded into the glass patch electrode. B) Top, exemplar sodium currents (INa) recorded in control saline and two concentrations of N-desmethyl tamoxifen (ND-Tam) from a voltage-clamped DRG neuron. INa was activated by 0.2 Hz train of 50 ms depolarizations to −10 mV from −100 mV holding potential. Bottom, time course of peak INa inhibition during control conditions and after 5 minutes of extracellular ND-Tam treatment. C) Resulting drug concentration-INa inhibition relationship for ND-Tam fit to the Hill equation. Open symbols represent responses from individual cells and filled symbols represent average response per concentration. Error is equal to S.E.M. (n=11) D) A comparison of the percent INa recovery after 3-10 μM ND-Tam or 1 mM carbamazepine (CBZ) inhibition. INa recovery was assessed after 5 minutes in control saline post drug exposure. Fewer INa recovered from ND-Tam exposure compared to CBZ exposure, 14.3±5.4% and 47.2±9.6%, respectively, and was statistically significant (P=0.03). Error is equal to S.E.M. and the number of cells tested per treatment group is indicated within the parentheses.\nPreviously, a unique receptor site for tamoxifen analogues within the prokaryotic sodium channel isolated form Magnetococcus marinus (NavMs)^36 (Sula et al) was crystallographically identified. Because drug occupancy of this receptor caused long lasting inhibition of the NavMs INa, the inventors wondered if these properties would translate into effects against sensory neuron Na s which transmit pain signals. Accordingly, =the potency of ND-Tam and 4OH-Tam was tested against endogenously expressed Na s in cultured DRG sensory neurons isolated from Nav1.8-tdTomato mice by conducting whole cell voltage clamp recordings (FIG. 1A, B). Sodium currents were activated by a 0.2 Hz train of −10 mV depolarizations from a holding potential of −100 mV. The externally applied drug effect was determined after three to five minutes of application of each drug concentration (FIG. 1B). […] As discussed in the introduction, total DRG INa is conducted by the Nav1.1, Nav1.6, Nav1.7, Nav1.8 and Nav1.9 subtypes. To determine if there is any specificity in the potency of tamoxifen analogues against Nav subtypes, human orthologues were heterologously expressed in cell lines (HEK and CHO co-expressing hb1 subunits), and conducted voltage-clamp experiments, as previously performed in the DRG neurons.\nDorsal root ganglia were isolated using a modified version of the previously described protocol (PMID: 26864470). All animal procedures were approved by the Institutional Animal Care and Use Committee at the Feinberg Medical School, Northwestern University. The spinal columns of 4-6-week-old […] or Nav1.8-Tomato mice (Nav1.8-Td) were removed and DRG neurons from all spinal levels were isolated for primary culture (PMID: 33827672, PMID: 31351964). The collected DRGs, containing both neuronal and non-neuronal cells, were acutely dissociated in DMEM with collagenase IV (2 mg/mL) for 30 minutes, followed by papain (25 U/mL) for 30 minutes. The cells were then triturated, filtered through a 40 μm cell strainer to remove non-dissociated cells, and washed with DMEM. The DRGs were resuspended in 70 μL of pre-warmed growth medium (DMEM F12+Glutamax supplemented with 0.5% FBS, 0.5% penicillin/streptomycin, 1% N-2 supplement, and β-NGF ([…]) added on the day of use) and plated on poly-l-lysine (10 mg/mL) and laminin (25 μg/mL) prepared coverslips. The DRGs were incubated at 37° C. for 2-4 hours before more growth medium was added to the wells. […]"}}}
{"smiles": "CC/C(=C(\\c1ccccc1)c1ccc(OCCNC)cc1)c1ccccc1", "note": "[ND-Tam, 2-[4-[(Z)-1,2-diphenylbut-1-enyl]phenoxy]-N-methylethanamine]", "values": [{"measurement": "affinity for the ER, times lower than 4OH-Tam", "setting": "[1]", "result": "~100", "unit": "times"}, {"measurement": "block of the total INa", "setting": "[2]; 3 μM ND-Tam treatment", "result": "≈ 45%"}, {"measurement": "change in the half-maximal activation of conductance (GV1/2)", "setting": "[2]; 3 μM ND-Tam treatment", "result": "No change"}, {"measurement": "IC50", "setting": "[2]; DRG neurons, −100 mV holding potential, 0.2 Hz train of −10 mV depolarizations, read-out: half maximal potency of INa inhibition (IC50)", "result": 1700, "unit": "nM"}, {"measurement": "voltage-dependence of inactivation (V1/2) after drug treatment", "setting": "[2]; ND-Tam (3 μM), control −47.6±0.4 mV", "result": "−51.9±0.4", "unit": "mV"}, {"measurement": "half-maximal conductance-voltage relationship (V1/2)", "setting": "[2]; ND-Tam conditions (3 μM), control −38.3±0.3 mV", "result": "−37.7±0.4", "unit": "mV"}, {"measurement": "shift in voltage dependence of inactivation", "setting": "[2]; after 3 μM ND-Tam treatment, P=0.01", "result": "−8", "unit": "mV"}, {"measurement": "inhibition of sodium currents recorded from DRG neurons (in words)", "setting": "[2]; tamoxifen analogs and fragments, FIG. 7B", "result": "inhibited sodium currents"}, {"measurement": "INa that did not recover after removing drug from the bath", "setting": "[2]; waiting for 5 minutes after removal", "result": "86±5", "unit": "%"}, {"measurement": "increase in potency when neuron membranes were held at more depolarizing potentials", "setting": "[2]; −40, −60 and −100 mV holding potentials", "result": "15-44 ×"}]}
